# Values of other authors, collected in patent US20040023948A1, “Fast-dispersing dosage form containing 5-HT1 agonists” (priority 1997, published 2004).
# Conditions: Vogel conflict test in rats; Gammans et al. 1986
compound,measurement,value
"c1cnc(N2CCNCC2)nc1 [Example 1-PP, 1-pyrimidinylpiperazine]",activity relative to unchanged buspirone,≤ 20%
